Experimental data from patent US20250057790A1, “AN INJECTABLE PHARMACEUTICAL COMPOSITION FOR THE TREATMENT OF RESPIRATORY DISEASES IN ANIMALS” (priority 2021, published 2025).
In brackets after ≈: the same amount, converted by molar mass.

Experiments:
B. bronchiseptica = experiment: MIC determination, broth-microdilution (CLSI VET01-A4), field isolates; format: cell-based, Bordetella bronchiseptica
Procedure: (§1) This study determined the in vitro activity Compound (A), the enantiomer of the compound of Formula (I), against different isolates of Actinobacillus (A.) pleuropneumoniae, Bordetella (B.) bronchiseptica, Mannheimia (M.) haemolytica, Pasteurella (P.) multocida, Histophilus (H.) somni and Glaesserella parasuis collected in different European countries.
(§2) The in vitro activity was determined by measuring the minimum inhibitory concentrations (MIC) according to CLSI document VET01-A4 [1] and by calculating MIC50 and MIC90.
(§3) A total of 193 field isolates were tested: 31 of A. pleuropneumoniae, 20 of B. bronchiseptica, 20 of H. somni, 20 H. parasuis, 55 of M. haemolytica and 47 of P. multocida. All bacteria were isolated from the respiratory tract of cattle and swine suffering from respiratory disease. All isolates were epidemiologically unrelated as specified by the different suppliers. E. coli ATCC 25922 (ID 6105) and M. haemolytica ATCC 33396 (ID 6374) were used as reference strains for testing isolates of B. bronchiseptica, M. haemolytica and P. multocida. A. pleuropneumoniae ATCC 27090 (ID 6314) and H. somni ATCC 700025 (ID 6315) were used as reference strains for the testing isolates of A. pleuropneumoniae, H. somni and Glaesserella parasuis. Additionally, H. parasuis (G. parasuis) ATCC 19417 was included as type strain for growth control.
(§4) • Mueller-Hinton agar (Becton Dickinson, Lot 9224866) • Cation-adjusted Mueller-Hinton broth, (CAVHB, Becton Dickinson, Lot 8190586) • Sheep blood, defibrinated (Thermo Scientific, Lot 37091500) • Chocolate agar, GC II with IsoVitalex™ (Becton Dickinson, Lot 0147695) • GC-agar base (Becton Dickinson, Lot 6082608) • Hemoglobin solution (Becton Dickinson, Lot 7142854) • Vitox (Oxoid, Lot 2344976) • Veterinary fastidious Medium (VFM), prepared according to CLSI document VET01-A4 [1], containing: • CAMHB (Becton Dickinson, Lot 8190586) • Yeast extract (Sigma, Lot BCBS5470V) • Lysed horse blood (Thermo Scientific, Lot 35875000) • Supplement C™ (Becton Dickinson, Lot 8030960) • Deionized water
The MICs for all isolates except for H. somni and Glaesserella parasuis isolates, were determined by using the broth-microdilution method according to CLSI document VET01-A4 [1]. For isolates of H. somni and Glaesserella parasuis the agar-dilution method with chocolate agar GC II, was used. The test concentration range for all compounds was 16 μg/mL to 0.016 μg/mL.
The MIC results were interpreted according to the CLSI document VET01-S3 [2]. […] All wells containing test item were compared with the growth-control wells. The lowest concentration of compound at which no visible growth (i.e. no turbidity) was detected by the unaided eye was recorded as the MIC. […]

H. somni = experiment: MIC determination, broth microdilution, field isolates; format: cell-based, Histophilus somni
Procedure: as §1, §2, §3, §4
[…] […] The test concentration range for all compounds was 16 μg/mL to 0.016 μg/mL.
The MIC results were interpreted according to the CLSI document VET01-S3 [2]. […] All wells containing test item were compared with the growth-control wells. The lowest concentration of compound at which no visible growth (i.e. no turbidity) was detected by the unaided eye was recorded as the MIC. If a “trailing endpoint” occurs, the MIC is defined as the first concentration at which a markedly reduction (about 90%) of the inoculum is observed.
[…] […] The MIC50 and MIC90 represent the concentrations at which a minimum of 50% or 90% of the isolates tested are inhibited.

[1] = Pharmacokinetic analysis in blood plasma of cattle after single SC administration; format: in vivo; conditions: for concentration at 0.25 h / concentration at 0.5 h / concentration at 1 h / concentration at 2 h / concentration at 4 h / concentration at 7 h / concentration at 10 h / concentration at 24 h / concentration at 32 h / concentration at 48 h / concentration at 72 h: bovine, plasma, sc, 10 mg/kg, cattle; for concentration at 0.25 h: 0.25 h after administration; for concentration at 0.5 h: 0.5 h after administration; for concentration at 1 h: 1 h after administration; for concentration at 2 h: 2 h after administration; for concentration at 4 h: 4 h after administration; for concentration at 7 h: 7 h after administration; for concentration at 10 h: 10 h after administration; for concentration at 24 h: 24 h after administration; for concentration at 32 h: 32 h after administration; for concentration at 48 h: 48 h after administration; for concentration at 72 h: 72 h after administration
Procedure: This study determined the bioavailability, the pharmacokinetic profile of Compound A formulations for subcutaneous (SC) injection in the blood plasma of cattle after a single subcutaneous (SC) administration of 10 mg/kg body weight. Concentrations in the blood plasma and bronchial epithelial lining fluid concentrations were determined. Additional tissues were collected post mortem for compound concentration determination.
Compound A was formulated as described in Examples 1 and 2 above. The aqueous solution formulation was Compound A 15% w/v, 15 w/v Kollisolv P124, 6% w/v benzyl alcohol, 7% w/v citric acid, and QS Water, pH 5.2. The oily suspension formulation was Compound A 17.5% w/v, suspended with 0.1% Kolliphor HS, and QS Miglyol812.
Samples were collected into K-EDTA coated Monovettes®. The samples were collected from the Vena jugularis externa. Preferred was the left side of the body, on the opposite side of administration.
The tubes were gently shaken to ensure proper mixing of blood with the anti-coagulant and placed in ice water until centrifugation. K-EDTA-Blood samples were centrifuged at approximately 4° C. and a relative centrifugal force of 2000 for 10 min. Within 2 hours after collection, two aliquots (1, 2) of approximately 0.5 mL blood plasma were pipetted off each sample into labeled plastic (polypropylene) freezer vials.
Pharmacokinetic (PK) parameters (Table 10-2) were calculated using the Phoenix WinNonlin 8.1 software. PK parameters (at least: Cmax, Tmax, AUClast, HL_Lambda_Z, VZ_F, MRTlast, CL_F and F %) to describe the PK profile after SC compound administration.

[2] = Bordetella bronchiseptica, 20 isolates, broth microdilution
[3] = both aqueous solution group and oily suspension group, SC 10 mg/kg
[4] = SC 10 mg/kg 15% aqueous solution
[5] = SC 10 mg/kg 17.5% oily suspension

COCCNCc1ccc(C#Cc2ccc(C(=O)N[C@H](C(=O)NO)C(C)(C)N)cc2)cc1 [Compound A]
MIC50 (B. bronchiseptica; [2]): 8 µg/mL (≈ 18.2 µM) | MIC90 (B. bronchiseptica; [2]): 16 µg/mL (≈ 36.5 µM) | Distribution of MICs: number of isolates with MIC 8 μg/mL (B. bronchiseptica; of 20 isolates tested): 10 | Distribution of MICs: number of isolates with MIC 16 μg/mL (B. bronchiseptica; of 20 isolates tested): 10 | MIC50 (H. somni; Histophilus somni, 20 isolates): 0.5 µg/mL (≈ 1.14 µM) | MIC90 (H. somni; Histophilus somni, 20 isolates): 1 µg/mL (≈ 2.28 µM) | Distribution of MICs: number of isolates with MIC 0.125 μg/mL (H. somni; of 20 isolates tested): 1 | Distribution of MICs: number of isolates with MIC 0.25 μg/mL (H. somni; of 20 isolates tested): 5 | Distribution of MICs: number of isolates with MIC 0.5 μg/mL (H. somni; of 20 isolates tested): 8 | Distribution of MICs: number of isolates with MIC 1 μg/mL (H. somni; of 20 isolates tested): 5 | Distribution of MICs: number of isolates with MIC 2 μg/mL (H. somni; of 20 isolates tested): 1 | Compound persistence in cattle [1, 3]: around 11 h | Period of constant plasma plateau levels after treatment [1, 3]: 4 to 10 h | Time for which compound was detected in bovine plasma, on average [1, 3]: 72 h | concentration at 0.25 h [1, 4]: 1440 ng/mL | concentration at 0.5 h [1, 4]: 1630 ng/mL | concentration at 1 h [1, 4]: 1260 ng/mL | concentration at 2 h [1, 4]: 567 ng/mL | concentration at 4 h [1, 4]: 363 ng/mL | concentration at 7 h [1, 4]: 395 ng/mL | concentration at 10 h [1, 4]: 320 ng/mL | concentration at 24 h [1, 4]: 47 ng/mL | concentration at 32 h [1, 4]: 22 ng/mL | concentration at 48 h [1, 4]: 11.5 ng/mL | concentration at 72 h [1, 4]: 6.55 ng/mL | concentration at 0.25 h [1, 5]: 1220 ng/mL | concentration at 0.5 h [1, 5]: 1090 ng/mL | concentration at 1 h [1, 5]: 571 ng/mL | concentration at 2 h [1, 5]: 413 ng/mL | concentration at 4 h [1, 5]: 356 ng/mL | concentration at 7 h [1, 5]: 433 ng/mL | concentration at 10 h [1, 5]: 319 ng/mL | concentration at 24 h [1, 5]: 56.5 ng/mL | concentration at 32 h [1, 5]: 30.8 ng/mL | concentration at 48 h [1, 5]: 13.2 ng/mL | concentration at 72 h [1, 5]: 7.28 ng/mL
